Measured values as given in PubChem BioAssay AID330 (DTP/NCI, 2004).
“And” between values parts separate entries of the source, which are not always exact repeats. Equal entries are not always repeated. Toxic doses and inconclusive results are not listed. Rule for the calls: active = survival T/C of 150% or more; inactive = T/C below 125% in these data.

System: P388 leukemia ip, CD2F1 mice, survival T/C
Assay: NCI In Vivo Anticancer Drug Screen. Data for tumor model P388 Leukemia (intraperitoneal) in CD2F1 (CDF1) mice
Conditions: endpoint: median survival time, higher = longer survival
How it was run: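 Mice carrying the transplanted tumor received test compound or vehicle. Survival was recorded in each group, and the value is the treated-group measurement divided by that of the vehicle-treated control group.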

[1] = dose: 50.0 mg/kg/injection, schedule: Q01DX009 (ip), vehicle: saline with Tween-80
[2] = dose: 100.0 mg/kg/injection, schedule: Q01DX009 (ip), vehicle: saline with Tween-80
[3] = dose: 200.0 mg/kg/injection, schedule: Q01DX009 (ip), vehicle: saline with Tween-80

Measured: T/C

O=C1C=C(SCCO)C(=O)c2ccccc21
inactive: dose: 0.62 mg/kg/injection, schedule: Q01DX009 (ip), vehicle: saline with Tween-80 100 % of control | dose: 1.25 mg/kg/injection, schedule: Q01DX009 (ip), vehicle: saline with Tween-80 100 % of control | dose: 2.5 mg/kg/injection, schedule: Q01DX009 (ip), vehicle: saline with Tween-80 95 % of control

O=C(Cn1c(=O)sc2ccc(Cl)cc21)N1CCN(CCO)CC1
inactive: dose: 25.0 mg/kg/injection, schedule: Q01DX009 (ip), vehicle: saline 105 % of control | dose: 50.0 mg/kg/injection, schedule: Q01DX009 (ip), vehicle: saline 105 % of control | dose: 100.0 mg/kg/injection, schedule: Q01DX009 (ip), vehicle: saline 99 % of control | dose: 200.0 mg/kg/injection, schedule: Q01DX009 (ip), vehicle: saline 94 % of control

CCOCC(=O)[C@]1(O)Cc2c(O)c3c(c(O)c2[C@@H](OC2CC(N)C(O)C(C)O2)C1)C(=O)c1c(OC)cccc1C3=O (some centres not stated)
active: dose: 1.56 mg/kg/injection, schedule: Q01DX009 (ip), vehicle: water 153 % of control | dose: 3.13 mg/kg/injection, schedule: Q01DX009 (ip), vehicle: water 158 % of control and 163 % of control

CCOc1c(N=Nc2cccc(Cl)c2)c(C)nn1C(=S)SC
inactive: dose: 60.0 mg/kg/injection, schedule: Q01DX005 (ip), vehicle: Klucel + Tween-80 94 % of control | dose: 120.0 mg/kg/injection, schedule: Q01DX005 (ip), vehicle: Klucel + Tween-80 98 % of control | dose: 240.0 mg/kg/injection, schedule: Q01DX005 (ip), vehicle: Klucel + Tween-80 99 % of control

C=CCC12CC(O)C(O)CC1(O)OC(c1cc(OC)c(OC)c(OC)c1)C2C (configuration not stated)
inactive: dose: 1.25 mg/kg/injection, schedule: Q01DX005 (ip), vehicle: acid diluted with saline 115 % of control | dose: 2.5 mg/kg/injection, schedule: Q01DX005 (ip), vehicle: acid diluted with saline 102 % of control | dose: 5.0 mg/kg/injection, schedule: Q01DX005 (ip), vehicle: acid diluted with saline 100 % of control | dose: 10.0 mg/kg/injection, schedule: Q01DX005 (ip), vehicle: acid diluted with saline 93 % of control

CC(Br)C(=O)c1ccc(OCc2ccccc2)cc1 (configuration not stated)
inactive: [1] 110 % of control | [2] 124 % of control | [3] 121 % of control

CCCCN1NC1(C)c1ccccc1 (configuration not stated)
inactive: dose: 50.0 mg/kg/injection, schedule: Q01DX005 (ip), vehicle: saline with Tween-80 108 % of control | dose: 100.0 mg/kg/injection, schedule: Q01DX005 (ip), vehicle: saline with Tween-80 104 % of control | dose: 200.0 mg/kg/injection, schedule: Q01DX005 (ip), vehicle: saline with Tween-80 112 % of control

CC(C)CC(NC(=O)OCC[P+](c1ccccc1)(c1ccccc1)c1ccccc1)C(=O)O (configuration not stated)
inactive: dose: 6.25 mg/kg/injection, schedule: Q04DX003 (ip), vehicle: saline 102 % of control | dose: 12.5 mg/kg/injection, schedule: Q04DX003 (ip), vehicle: saline 105 % of control | dose: 25.0 mg/kg/injection, schedule: Q04DX003 (ip), vehicle: saline 112 % of control | dose: 50.0 mg/kg/injection, schedule: Q04DX003 (ip), vehicle: saline 121 % of control

CC1(C)C(C#N)C(=O)N(Cc2ccccc2)C(=O)C1C#N (configuration not stated)
inactive: [1] 100 % of control | [2] 104 % of control | [3] 113 % of control

Cc1c(O)c2c(c(O)c1Cc1ccc(C#N)cc1)C(=O)c1ccccc1C2=O
inactive: dose: 6.25 mg/kg/injection, schedule: Q01DX009 (ip), vehicle: saline with Tween-80 94 % of control | dose: 12.5 mg/kg/injection, schedule: Q01DX009 (ip), vehicle: saline with Tween-80 91 % of control | dose: 25.0 mg/kg/injection, schedule: Q01DX009 (ip), vehicle: saline with Tween-80 90 % of control | [1] 91 % of control | dose: 200.0 mg/kg/injection, schedule: Q01DX009 (ip), vehicle: Klucel (hydroxypropylcellulose) (HPC) 89 % of control

CN(C)CCCNC(=O)c1cccc2cccc(C(=O)O)c12
inactive: dose: 60.0 mg/kg/injection, schedule: Q01DX005 (ip), vehicle: saline 97 % of control | dose: 120.0 mg/kg/injection, schedule: Q01DX005 (ip), vehicle: saline 101 % of control | dose: 240.0 mg/kg/injection, schedule: Q01DX005 (ip), vehicle: saline 104 % of control
